Here are results for 4 compounds from paper PMC11302729, “Repurposing Hsp90 inhibitors as antimicrobials targeting two-component systems identifies compounds leading to loss of bacterial membrane integrity” (Microbiology Spectrum, 2024).

The target in the first assay is S. aureus PhoR (Staphylococcus aureus, UniProt Q2FXN7). In words: HK autophosphorylation inhibition, PhoR. The format is biochemical. As to conditions: ± SD, n = 2; 10 mM ATP. On the procedure: Cytoplasmic domains from S. aureus PhoR and E. coli EnvZ as well the CA domain of Thermotoga maritima CheA were cloned in pNIC28-Bsa4 ([54]) plasmid containing His6-tag expressed in E. coli RIL and purified as previously described ([21], [55], [56]) using His-affinity and size exclusion chromatography. Briefly, E. coli RIL strains carrying the appropriate plasmid were grown in 1 L Luria broth (LB) (Merck Millipore) supplemented with kanamycin (100 µg/mL) with shaking (200 r.p.m.) at 37°C. When OD600 reached 0.5, 1 mM isopropyl-ß-D-1-thiogalactopyranoside (IPTG) was added to induce protein expression and cells were grown for 3 more hours. Cells were harvested by centrifugation (4,000 g, 4°C), resuspended in 40 mL buffer A (50 mM Tris-HCl pH 8.0, 0.5 M NaCl, 10% glycerol, and 1 mM phenylmethanesulfonyl fluoride), sonicated (4°C, 5 min with pulses of 15 sec at intervals of 1 min), and centrifuged (11,000 g, 4°C, 60 min). Supernatant was passed through a 5-mL HisTrap HP column (GE Healthcare) equilibrated in buffer A using the AKTA system (GE Healthcare). His-column was washed with buffer A (80 mL), and a linear gradient of imidazole (range 0 to 0.25 M) in buffer A was applied. The purest fractions evaluated by SDS-PAGE were collected, concentrated by ultrafiltration in a Amicon Ultra-15 (10- or 30-kDa exclusion) (Merck Millipore), and further purified by gel filtration using Superdex 200 column (GE Healthcare), equilibrated in buffer B (50 mM TrisHCl, pH 8.0, 0.2 M NaCl, and 5% glycerol). Purified proteins were then concentrated using ultrafiltration and stored at −80°C.
Sequence of S. aureus PhoR (Q2FXN7 entry or part of it): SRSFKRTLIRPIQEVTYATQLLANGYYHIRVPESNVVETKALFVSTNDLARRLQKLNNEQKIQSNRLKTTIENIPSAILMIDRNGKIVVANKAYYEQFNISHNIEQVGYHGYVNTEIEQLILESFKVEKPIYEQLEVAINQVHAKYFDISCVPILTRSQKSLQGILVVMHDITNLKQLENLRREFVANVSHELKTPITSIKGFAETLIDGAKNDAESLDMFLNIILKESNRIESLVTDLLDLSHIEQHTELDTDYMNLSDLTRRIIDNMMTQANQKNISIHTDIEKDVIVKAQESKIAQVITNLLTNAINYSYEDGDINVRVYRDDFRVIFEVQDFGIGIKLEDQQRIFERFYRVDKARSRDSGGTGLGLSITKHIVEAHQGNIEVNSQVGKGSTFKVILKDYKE
Autophosphorylation inhibition assays were performed in kinase assay buffer [100 mM Tris-HCl (pH 8.0), 5 mM MgCl2, 10 mM DTT], containing 5 µg of purified HK and 10 mM ATP for 30 min at 25°C. The reaction was stopped by adding gel loading buffer containing 16% SDS before loading the reaction on a 12% SDS-PAGE. […] The phosphorylated histidine was detected by western blotting by then incubating the membrane for 60 min with 1:1,000 anti-N1-phosphohistidine antibody (Merck Millipore) in TBS-T followed by a washing step for 30 min with TBS-T and a final 60-min incubation with 1:10,000 horseradish […] anti-rabbit IgG (Promega) in TBS-T. Chemiluminescent reaction was measured using Pierce ECL immunoblotting substrate (Thermo Scientific) in a LAS 3000 image analyzer (Fujifilm Life Science, Tokyo, Japan) followed by densitometric analysis using Multi Gauge image-analysis software (Fujifilm Life Science, Tokyo, Japan). The inhibitor concentrations required to halve the chemiluminescence intensity (IC50) were determined using Prism 4.1 (GraphPad Software, San Diego, CA, USA).
As to `COc1ccc(-c2c(C(F)(F)F)n[nH]c2-c2ccc(O)cc2O)cc1` [DPP-12], half-maximal inhibition (IC50) required 328 ± 4.1 µM.

On to `COc1ccc(-c2[nH]nc(C(F)(F)F)c2-c2ccc(Cl)cc2)c(O)c1` [DPP-6], for which the IC50 – broadly, the concentration that gives 50% inhibition – was found to be 55 ± 3.8 µM.

For `Oc1ccc(-c2n[nH]c(C(F)(F)F)c2-c2ccc(Cl)cc2)c(O)c1` [DPP-5], the IC50 stood at 95 ± 5.6 µM.

The compound `COc1ccc(-c2c(C(F)(F)F)n[nH]c2-c2ccc(OC)cc2O)cc1` [DPP-13] returned an IC50 of 89 ± 6.9 µM.

Another assay has as its target T1, Hsp90α (Homo sapiens, UniProt P07900).
T1 construct: expression strains containing GST-Hsp90 N(9-236) plasmid (Addgene: 22481); host or cells: E. coli BL21(DE3)
As to the kind of experiment: Hsp90 fluorescence polarization assay (displacement of FITC-labeled geldanamycin). The following applies: compound concentration that decreases geldanamycin binding by 50%. On the procedure:
The compounds were tested for inhibition of HK autophosphorylation in vitro. Of the 24 derivatives, 6 inhibited in vitro autophosphorylation of E. coli EnvZ at a concentration of 2 mM. […] Each compound has similar IC50 values for PhoR and EnvZ, indicating good potential for polypharmacology. We discounted the notion that DPP-induced aggregation of HKs was the reason for inhibiting autophosphorylation using native gel protein electrophoresis of HK proteins with and without DPPs (data not shown). We also investigated if the four DPP inhibiting HK autophosphorylation would also bind to Hsp90α in a fluorescence polarization assay. In this assay, inhibitors were tested for their ability to displace FITC-labeled geldanamycin (a well-known Hsp90 inhibitor) from the ATP pocket ([40]). All the compounds tested displaced FITC-labeled geldanamycin with IC50s in the nM range (Table 2).
The Hsp90α […] domain was purified as described by Goode et al. ([57]). E. coli BL21(DE3) expression strains containing GST-Hsp90 N(9-236) plasmid (Addgene: 22481) were grown in 1 L LB media supplemented with 100 µg/mL ampicillin at 25°C and shaking (200 r.p.m.) to OD600 0.5, and protein expression was induced by the addition of 1 mM IPTG, and the culture was grown at 25°C and shaking (200 r.p.m.) overnight. Cells were then pelleted (4,000 g, 4°C), resuspended in 40 mL buffer A2 (50 mM Tris-HCl pH 8.0, 0.5 M NaCl, and 1 mM phenylmethanesulfonyl fluoride), sonicated (4°C, 5 min with pulses of 15 sec at intervals of 1 min), and centrifuged (11,000 g, 4°C, 60 min). Supernatant was passed through a 5-mL Glutathione Sepharose 4B (GE Healthcare) equilibrated with buffer A2 using an AKTA system (GE Healthcare). Column was washed using buffer A2, and a linear gradient of glutathione (0–0.25M) in buffer A2 was applied. Fractions containing Hsp90α were collected, mixed, and concentrated by ultrafiltration.
Competitive binding of inhibitors to Hsp90 was measured by fluorescence polarization assay as previously reported ([58]). Inhibitors were assayed in different concentrations (range 0–1,000 µM) in a Nunc black, low binding 384-well plate (Thermo Scientific). Each reaction was prepared in reaction mix (100 mM Tris-Cl, pH 7.4, 20 mM KCl, 6 mM MgCl2, 2 mM DTT, and 0.1 mg/mL bovine serum albumin) in a final volume of 50 µL containing 350 nM Hsp90 and 100 nM geldanamycin FITC labeled (BPS Bioscience, San Diego, CA, USA) and the inhibitor in the correspondent concentration. Blank control containing no enzyme and no geldanamycin, enzyme-positive control containing no inhibitor, and enzyme-negative control containing no Hsp90 were included. Fluorescence polarization was then measured using Tecan SPARK (Tecan, Grödig, Austria) at wavelengths λex = 485 nm and λem = 530 nm.
`COc1ccc(-c2c(C(F)(F)F)n[nH]c2-c2ccc(O)cc2O)cc1` [DPP-12]: the 50% inhibitory concentration (IC50) stood at 0.574 µM.

In the case of `COc1ccc(-c2[nH]nc(C(F)(F)F)c2-c2ccc(Cl)cc2)c(O)c1` [DPP-6], the IC50 came to 0.798 µM.

In turn, `Oc1ccc(-c2n[nH]c(C(F)(F)F)c2-c2ccc(Cl)cc2)c(O)c1` [DPP-5] had a 50% inhibitory concentration (IC50) of 0.496 µM.

Compound `COc1ccc(-c2c(C(F)(F)F)n[nH]c2-c2ccc(OC)cc2O)cc1` [DPP-13] registered an IC50 of 0.838 µM.
